# Laboratory results reported in PubChem BioAssay AID2060884 (Molecular Pharmacology Branch, DTP, NCI, 2025).
# Tested on: NCI-H929 complex spheroids, viability % test/control
# Assay: Anticancer human tumor NCI-H929 cell line growth inhibition [RAS];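 note: compound exposure lasted seven days before viability was read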;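 for viability, T/C: 100% = DMSO vehicle control viability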
# Details: for viability, T/C: stronger effect = lower value
# Method in brief: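 Multi-cell-type spheroids: tumor cells plus HUVEC endothelial cells and mesenchymal stem cells. RAS-pathway inhibitors were combined with targeted agents, each dosed in half-log steps down from clinical Cmax, or from 10 microM when Cmax was unknown.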
compound,measurement,setting,value
CC(=O)OC12COC1CC(O)C1(C)C(=O)C(O)C3=C(C)C(OC(=O)C(O)C(NC(=O)OC(C)(C)C)c4ccccc4)CC(O)(C(OC(=O)c4ccccc4)C21)C3(C)C (stereo not drawn) + C=CC(=O)N1CCN(c2nc(OCC3CCCN3C)nc3c(F)c(-c4nc(N)cc(C)c4C(F)(F)F)c(Cl)cc23)C(C)C1,IC50,"curve of first compound, second compound 0.00316 µM",< 31.6 nM
same,IC50,"curve of first compound, second compound 0.01 µM",< 31.6 nM
same,IC50,"curve of first compound, second compound 0.0316 µM",< 31.6 nM
same,IC50,"curve of first compound, second compound 0.1 µM",< 31.6 nM
same,IC50,"curve of first compound, second compound 0.316 µM",< 31.6 nM
same,IC50,"curve of first compound, second compound 1 µM",< 31.6 nM
same,"viability, T/C","second compound 0.00316 µM, first compound 0.0316 µM",0.81%
same,"viability, T/C","second compound 0.00316 µM, first compound 0.1 µM",0.73%
same,"viability, T/C","second compound 0.00316 µM, first compound 0.316 µM",1.35%
same,"viability, T/C","second compound 0.00316 µM, first compound 1 µM",2.03%
same,"viability, T/C","second compound 0.00316 µM, first compound 3.16 µM",1.42%
same,"viability, T/C","second compound 0.00316 µM, first compound 10 µM",1.11%
same,"viability, T/C","second compound 0.01 µM, first compound 0.0316 µM",1.77%
same,"viability, T/C","second compound 0.01 µM, first compound 0.1 µM",0.94%
same,"viability, T/C","second compound 0.01 µM, first compound 0.316 µM",1.67%
same,"viability, T/C","second compound 0.01 µM, first compound 1 µM",1.93%
same,"viability, T/C","second compound 0.01 µM, first compound 3.16 µM",1.54%
same,"viability, T/C","second compound 0.01 µM, first compound 10 µM",1.19%
same,"viability, T/C","second compound 0.0316 µM, first compound 0.0316 µM",1.41%
same,"viability, T/C","second compound 0.0316 µM, first compound 0.1 µM",1.13%
same,"viability, T/C","second compound 0.0316 µM, first compound 0.316 µM",1.31%
same,"viability, T/C","second compound 0.0316 µM, first compound 1 µM",1.79%
same,"viability, T/C","second compound 0.0316 µM, first compound 3.16 µM",1.72%
same,"viability, T/C","second compound 0.0316 µM, first compound 10 µM",0.97%
same,"viability, T/C","second compound 0.1 µM, first compound 0.0316 µM",2.46%
same,"viability, T/C","second compound 0.1 µM, first compound 0.1 µM",1.76%
same,"viability, T/C","second compound 0.1 µM, first compound 0.316 µM",0.8%
same,"viability, T/C","second compound 0.1 µM, first compound 1 µM",2.06%
same,"viability, T/C","second compound 0.1 µM, first compound 3.16 µM",1.88%
same,"viability, T/C","second compound 0.1 µM, first compound 10 µM",1.11%
same,"viability, T/C","second compound 0.316 µM, first compound 0.0316 µM",0.97%
same,"viability, T/C","second compound 0.316 µM, first compound 0.1 µM",1.22%
same,"viability, T/C","second compound 0.316 µM, first compound 0.316 µM",0.89%
same,"viability, T/C","second compound 0.316 µM, first compound 1 µM",2.24%
same,"viability, T/C","second compound 0.316 µM, first compound 3.16 µM",1.05%
same,"viability, T/C","second compound 0.316 µM, first compound 10 µM",1.06%
same,"viability, T/C","second compound 1 µM, first compound 0.0316 µM",2.41%
same,"viability, T/C","second compound 1 µM, first compound 0.1 µM",1.89%
same,"viability, T/C","second compound 1 µM, first compound 0.316 µM",1.45%
same,"viability, T/C","second compound 1 µM, first compound 1 µM",0.87%
same,"viability, T/C","second compound 1 µM, first compound 3.16 µM",1.43%
same,"viability, T/C","second compound 1 µM, first compound 10 µM",1.17%
CCC(CC)c1cc(NC2CCC(N)C2)n2nccc2n1 (stereo not drawn),"viability, T/C",compound 0.0316 µM,101% [middle of 4 runs]
same,"viability, T/C",compound 0.1 µM,98% [middle of 4 runs]
same,"viability, T/C",compound 0.316 µM,99.4% [middle of 4 runs]
same,"viability, T/C",compound 3.16 µM,1.51% [middle of 4 runs]
same,"viability, T/C",compound 10 µM,0.97% [middle of 4 runs]
same,IC50,curve of compound,1.74 µM [middle of 4 runs]
